Laboratory results: PMC3288125 (Cancer Chemotherapy and Pharmacology, 2011)
Several values for one entry are separate records, joined by “and”; a condition that tells them apart may be missing. Equal entries are not always repeated. Marks after values point to notes of the source that are not given here.

Tests used:
[1] = Serum pharmacokinetics of intravenous 3-AP; assay type: in vivo, human
[2] = Serum pharmacokinetics and bioavailability of oral 3-AP
[3] = test system: advanced stage cancers; conditions: cited from earlier work
[4] = in vivo, po
[5] = Phase I dose escalation of oral 3-AP: adverse events; assay type: in vivo
[6] = test system: advanced stage solid cancers; test: Tumor response to oral 3-AP; assay type: in vivo, human
[7] = Intravenous Route, 100 mg 2-hour infusion, individual patients
[8] = Oral Route, oral dose 50 mg, individual patients
[9] = Oral Route, oral dose 100 mg, individual patients
[10] = Oral Route, oral dose 150 mg, individual patients
[11] = Oral Route, oral dose 200 mg, individual patients
[12] = 200 mg, represented grade 4 toxicity
[13] = adverse events attributed to treatment, 20 patients
[14] = of 20 enrolled patients, all dose levels

## NC(=S)NN=Cc1ncccc1N [3-AP, 3-aminopyridine-2-carboxaldehyde thiosemicarbazone]
[1]; [7]
  AUC: 8.8 µM·h and 4.8 µM·h and 12.1 µM·h and 14.1 µM·h and 7.0 µM·h and 16.1 µM·h and 25.6 µM·h and 10.2 µM·h and 14.5 µM·h and 8.3 µM·h and 11.3 µM·h and 7.2 µM·h and 5.7 µM·h and 10.0 µM·h
  MRT (mean residence time): 2.4 h and 2.6 h and 3.0 h and 3.5 h and 2.3 h and 2.7 h and 3.1 h
[1]; Intravenous Route, 100 mg 2-hour infusion, serum, individual patients
  Cmax: 2800 nM and 5400 nM and 4700 nM and 6700 nM and 1900 nM and 3700 nM and 2700 nM and 3200 nM and 2900 nM and 2100 nM and 2500 nM
[1]; human, serum, iv, 100 mg
  Tmax: 2 h
[1]; human, serum, iv, 100 mg, AUC, Avg., 100 mg 2-hour infusion, mean
  AUC: 9.5 µM·h
[1]; human, serum, iv, 100 mg, Cmax, Avg., 100 mg 2-hour infusion, mean
  Cmax: 3500 ± 1400 nM
[1]; human, serum, iv, 100 mg, MRT (mean residence time), 100 mg 2-hour infusion, individual patients
  MRT: 2.5 h
[1]; human, serum, iv, 100 mg, MRT, Avg., 100 mg 2-hour infusion, mean
  MRT: 2.8 h
[1]; read-out: Cmax, Avg., Intravenous Route, 100 mg 2-hour infusion, mean
  Cmax: 2800 nM
[2]; [8]
  AUC: 5.2 µM·h and 1.9 µM·h and 3.5 µM·h and 1.6 µM·h and 1.4 µM·h and 4.1 µM·h
  Cmax: 1500 nM and 900 nM and 500 nM and 1100 nM
  MRT: 2.6 h and 3.0 h and 3.4 h
  Tmax: 3.0 h and 0.8 h and 1.0 h and 1.3 h
[2]; [9]
  AUC: 6.5 µM·h and 2.3 µM·h
  Cmax: 2500 nM
  MRT: 3.0 h
[2]; [10]
  AUC: 8.0 µM·h and 21.7 µM·h and 4.3 µM·h and 8.5 µM·h
  Cmax: 5900 nM and 1600 nM and 10100 nM
  MRT: 3.5 h and 1.7 h and 5.4 h and 3.3 h
  Tmax: 0.8 h and 6.0 h
[2]; [11]
  AUC: 56.0 µM·h and 19.5 µM·h
  Cmax: 800 nM and 4600 nM
  MRT: 3.9 h
  Tmax: 3.0 h
[2]; human, serum, po
  bioavailability: 67 ± 29%
[2]; human, serum, po, 50 mg, MRT, oral dose 50 mg, individual patients
  MRT: 4.2 h
[2]; human, serum, po, 100 mg, MRT, oral dose 100 mg, individual patients
  MRT: 2.8 h
[2]; human, serum, po, 150 mg, AUC, Avg., average for patients receiving an oral dose of 150 mg
  AUC: 10.6 µM·h
[2]; human, serum, po, 150 mg, Cmax, Avg., average for patients receiving an oral dose of 150 mg
  Cmax: 5000 nM
[2]; human, serum, po, 200 mg, MRT, oral dose 200 mg, individual patients
  MRT: 2.5 h
[2]; human, serum, po, MRT, Avg., mean across dose levels
  MRT: 3.2 h
[2]; human, serum, po, Tmax, Avg., mean across dose levels
  Tmax: 1.9 h
[3]; phase 1, radiation, cisplatin and three-times weekly intravenous 3-AP 25 mg/m^2, advanced stage cervical cancer, 10 of 10 women
  durable 18-month complete pelvic tumor response rate: 100%
[3]; phase I, intravenous 3-AP in combination with gemcitabine, after 4 months of treatment
  patients with at least stable disease as a best response: 42%
[3]; phase II, intravenous 3-AP and gemcitabine, relapsed nonsmall cell lung cancer
  stable disease rate: 20%
[4]; human
  CL/F, Avg.: 0.017 L/h
[4]
  exposure of orally administered 3-AP versus dose: increased in a dose dependent manner
[5]; [12]
  (AST/SGOT), Grade 3–4: 1 (50) ^* No. of Patients (%)
  Neutropenia, Grade 3–4: 1 (50) ^* No. of Patients (%)
  Thrombocytopenia, Grade 3–4: 1 (50) ^* No. of Patients (%)
[5]; All Gr 3–4, all dose levels
  (AST/SGOT), Grade 3–4: 1 (5) No. of Patients (%)
  Anorexia, Grade 3–4: 1 (5) No. of Patients (%)
  Fatigue, Grade 3–4: 1 (5) No. of Patients (%)
  Hemoglobin (anemia), Grade 3–4: 2 (10) No. of Patients (%)
  Hypertension, Grade 3–4: 1 (5) No. of Patients (%)
  Hypoxia, Grade 3–4: 2 (10) No. of Patients (%)
  Infection, Grade 3–4: 1 (5) No. of Patients (%)
  Neutropenia, Grade 3–4: 4 (20) No. of Patients (%)
  Thrombocytopenia, Grade 3–4: 1 (5) No. of Patients (%)
[5]; [13]
  (AST/SGOT), all grades: 10%
  (AST/SGOT), all grades, No. of Patients: 2
  Alkaline phosphatase, all grades: 10%
  Alkaline phosphatase, all grades, No. of Patients: 2
  Anorexia, all grades: 20%
  Anorexia, all grades, No. of Patients: 4
  Diarrhea, all grades: 5%
  Diarrhea, all grades, No. of Patients: 1
  Fatigue, all grades: 25%
  Fatigue, all grades, No. of Patients: 5
  Headache, all grades: 20%
  Headache, all grades, No. of Patients: 4
  Hemoglobin (anemia), all grades, No. of Patients: 7
  Hemorrhage, all grades, No. of Patients: 1
  Hyperglycemia, all grades: 15%
  Hyperglycemia, all grades, No. of Patients: 3
  Hypertension, all grades: 5/5%
  Hypertension, all grades, No. of Patients: 1/1
  Neutropenia, all grades, No. of Patients: 11
  Thrombocytopenia, all grades, No. of Patients: 6
  Thrombosis, all grades, No. of Patients: 0
  Vomiting, all grades: 15%
  Vomiting, all grades, No. of Patients: 3
[5]; among the 20 patients enrolled
  hematological and infectious adverse events observed, number: 27
[5]; human, in vivo
  Hypokalemia, all grades: 5%
  Hypokalemia, all grades, No. of Patients: 1
  Hypotension, all grades: 5/5%
  Hypotension, all grades, No. of Patients: 1/1
  Hypoxia, all grades: 10%
  Hypoxia, all grades, No. of Patients: 2
  Infection, all grades: 15%
  Infection, all grades, No. of Patients: 3
  Nausea, all grades: 25%
  Nausea, all grades, No. of Patients: 5
[5]; of 20 patients
  Therapy discontinued for adverse events: 40%
[5]; of 20 patients, after a median of 1 cycle
  Therapy discontinued for adverse events, patients: 8
[5]; oral 50 mg every 12 Hrs.
  DLT Description: grade 3 hypertension
[5]; oral 150 mg every 12 Hrs.
  DLT Description: grade 4 febrile neutropenia
[5]; oral 200 mg every 12 Hrs.
  DLT Description: grade 3 hypoxia
[5]; oral vs intravenous route
  MTD by the oral route higher than by the intravenous route: 33%
[5]; per dose, every 12 hours for 5 doses on days 1–3, 8–10, 15–17 of each 28-day cycle
  maximum tolerated dose (MTD) of oral 3-AP: 150 mg
[6]; in vivo
  median duration of stable disease response: 2 months
[6]; [14]
  Stable disease as the best response: 25%
  Stable disease as the best response, patients: 5
[6]; of 20 patients
  Therapy discontinued for disease progression: 50%
  progressive disease confirmed while on study, patients: 10
[6]; of 20 patients, after a median of 2 cycles
  Therapy discontinued for disease progression, patients: 10
[6]; one patient with pancreatic adenocarcinoma
  longest progression-free interval: 15 months
[6]; treated population with advanced solid tumors
  clinical benefit rate: 25%
